tested on: HMG-CoA reductase; experiment: HMG-CoA Reductase Inhibition Assay (in vitro, intrinsic inhibitory activity); format: biochemical; details: compactin assigned a value of 100; IC50 of test compound compared with that of compactin determined simultaneously; tested as sodium salt of dihydroxy acid form; solubilized rat liver microsomal enzyme
Description: The intrinsic HMG-CoA reductase inhibition activity of the claimed compounds is measured in the in vitro protocol published in J. Med. Chem., 28, P. 347-358 (1985) and described below:
Isolation of HMG-CoA Reductase. Male Holtzman Sprague-Dawley rate (225-250 g) were kept on reversed lighting and fed Purina rat chow containing 3% cholestyramine for 7 days preceding their sacrifice by CO2 asphyxiation. Livers were removed 6 hours into the dark cycle and used immediately to prepare microsomes. HMG-CoA reductase was solubilized from the freshly prepared microsome by the method of Heller and Shrewsbury [J. Boil Chem., 1976, 251,3815], and purified through the second ammonium sulfate precipitation step as described by Kleinsek et al., [Proc. Natl. Acad. Sci. USA, 1977, 74, 1431]. The enzyme preparation was tested for HMG-CoA reductase potency and diluted with 100 mM phosphate buffer (pH 7.2) so that 100 μL of the enzyme solution, when added to the assay control, gave a value of 50,000-60,000 dpm. The enzyme preparation was stored at -80° C.
HMG-CoA Reductase Inhibition Assay. The assay is essentially the procedure of Shefer et al., [J. Lipid Res., 1972, 13, 402]. The complete assay medium contained the following in a total volume of 0.8 mL: phosphate buffer, pH 7.2, 100 mM; MgCl2, 3 mM; NADP, 3 mM; glucose 6-phospate, 10 mM; glucose-6-phosphate dehydrogenase, 3 enzyme units; reduced glutathione, 50 mM; HMG-CoA (glutaryl-3-^14C, New England Nuclear), 0.2 mM (0.1 μCi); and partially purified enzyme stock solution, 100 μL.
Test compounds or compactin (after first being converted to the sodium salt of their dihydroxy acid form in situ by addition of 1N NaOH (1 equiv)) were added to the assay system in 10-μL volumes at multiconcentration levels. After a 40-minute incubation at 37° C. with shaking and exposure to air, the reaction was stopped by the addition of 0.4 mL of 8N HCl. After an additional 30-minute incubation period at 37° C. to ensure the complete lactonization of mevalonic acid to mevalonolactone, 0.2 mL of the mixture was added to an 0.5×5.0 cm column containing 100-200-mesh Bio-Rex 5, chloride form (Bio-Rad), wetted with distilled water, as described by Alberts et al. [J. Proc. Natl. Acad. Sci. U.S.A., 1980, 77, 3957]. The unreacted [^14 C]HMG-CoA was absorbed on the resin and the [^14 C]mevalonolacetone was eluted with distilled water (2×1 mL) directly into 7-mL scintillation vials. Five milliliters of Aquasol-2 (New England Nuclear) was added to each vial, and radioactivity was measured in a Packard Tri Carb Prias scintillation counter. IC50 values were determined by plotting percentage inhibition against test compound concentration and fitting a straight line to the resulting data by using the least-squares method. For estimation of relative inhibitory potencies, compactin was assigned a value of 100 and the IC50 value of the test compound was compared with that of compactin determined simultaneously.

| Relative Potency | SMILES |
| --- | --- |
| 240 | CSC1(C(=O)O[C@H]2C[C@@H](C)C=C3C=C[C@H](C)[C@H](CC[C@@H](O)C[C@@H](O)CC(=O)O)[C@H]32)CCC1 |
| 171 | C[C@H]1C=C2C=C[C@H](C)[C@H](CC[C@@H](O)C[C@@H](O)CC(=O)O)[C@H]2[C@@H](OC(=O)C2(C)CCC2)C1 |
| 156 | C[C@H]1C=C2C=C[C@H](C)[C@H](CC[C@@H](O)C[C@@H](O)CC(=O)O)[C@H]2[C@@H](OC(=O)C2(Cc3ccccc3)CCC2)C1 |
| 217 | C[C@H]1C=C2C=C[C@H](C)[C@H](CC[C@@H](O)C[C@@H](O)CC(=O)O)[C@H]2[C@@H](OC(=O)C2(C)CCCCC2)C1 |
| 76 | C[C@H]1C=C2C=C[C@H](C)[C@H](CC[C@@H](O)C[C@@H](O)CC(=O)O)[C@H]2[C@@H](OC(=O)C2(C)CC2)C1 |
| 167 | CSC1(C(=O)O[C@H]2C[C@@H](C)C=C3C=C[C@H](C)[C@H](CC[C@@H](O)C[C@@H](O)CC(=O)O)[C@H]32)CCCC1 |
| 188 | C[C@H]1C=C2C=C[C@H](C)[C@H](CC[C@@H](O)C[C@@H](O)CC(=O)O)[C@H]2[C@@H](OC(=O)C2(C)CCCC2)C1 |
| 200 | C[C@H]1C=C2C=C[C@H](C)[C@H](CC[C@@H](O)C[C@@H](O)CC(=O)O)[C@H]2[C@@H](OC(=O)C2(Cc3ccc(O)cc3)CCC2)C1 |
| 100 | C[C@H]1C=C2C=C[C@H](C)[C@H](CC[C@@H](O)C[C@@H](O)CC(=O)O)[C@H]2[C@@H](OC(=O)C2(CCCO)CCC2)C1 |
| 88 | C[C@H]1C=C2C=C[C@H](C)[C@H](CC[C@@H](O)C[C@@H](O)CC(=O)O)[C@H]2[C@@H](OC(=O)C2(CO)CCC2)C1 |
